Laboratory results published in US20100216795A1, “TNIK INHIBITOR AND THE USE” (priority 2008, published 2010).

Columns and labels:
HCT-116 cells = assay: HCT-116 xenograft growth after intratumoral siRNA; format: in vivo, BALB/c nu/nu nude mice; details: HCT-116 tumours; for excised tumours versus not treated, atelocollagen only or control RNA: 18 days after the injection of siRNA; for volume of xenografts: single injection of siRNA with atelocollagen into the tumour, monitored 18 days
Method: We next examined the effects of TNIK on the growth of human colon cancer cells in vivo (FIG. 2). HCT-116 cells were implanted in the flank of immunodeficient mice. One week after the inoculation, siRNA against TNIK (12 or 13) mixed with atelocollagen (Takeshita, F. et al. Efficient delivery of small interfering RNA to bone-metastatic tumors by using atelocollagen in vivo. Proc Natl Acad Sci USA 102, 12177 (2005)) was injected directly into the tumours (224.5±8.9 mm^3 in size). Three days after the siRNA injection, some tumours were excised and the silencing of TNIK mRNA was confirmed by real-time PCR (FIG. 2b). The volume of xenografts was monitored for 18 days after siRNA injection (FIG. 2a). […] We observed similar regression of established tumours after a single injection of siRNA against TNIK in two other colorectal cancer cell lines, DLD1 and WiDr (FIGS. 3 and 4).
a, HCT-116 cells were inoculated into BALB/c nu/nu nude mice subcutaneously. The developed tumours were not treated, or treated with only atelocollagen, control RNA (X or IX) or siRNA against TNIK (12 or 13). The volume of tumours (n=8 per group) was monitored as indicated. #, P<0.001 (Mann-Whitney U-test); Bars, SE; N.S., not significant. b, mRNA expression of TNIK in tumours injected with siRNA (n=3 per group). c, d, Representative appearance of mice and excised tumours 18 days after the injection of siRNA. Columns indicate the average weight of excised tumours (n=8 per group). $, P<0.005 (Mann-Whitney U-test); Bars, SE.
5×10^6 HCT-116, DLD1 or WiDr cells suspended in 0.1 ml of PBS were subcutaneously inoculated into the flanks of 5-week-old female BALB/c nu/nu nude mice (SLC, Tokyo, Japan). One week later the developed tumours were treated with siRNA together with atelocollagen (AteloGene; KOKEN, Tokyo, Japan) (Takeshita, F. et al. Efficient delivery of small interfering RNA to bone-metastatic tumors by using atelocollagen in vivo. Proc Natl Acad Sci USA 102, 12177 (2005)). The final concentration of siRNA was 30 μM and that of atelocollagen was 0.5%. A 0.2-ml volume of siRNA solution was injected directly into each tumour. Tumour volume was determined as V=A×[…], where A and B represent the largest and smallest dimensions (Bergers, G et al. Effects of angiogenesis inhibitors on multistage carcinogenesis in mice. Science 284, 808 (1999)).

[1] = target: T1, human TNIK (N-terminal segment, TNIK_N) (Homo sapiens, UniProt Q9UKE5); assay: TNIK kinase assay (mobility shift); format: biochemical; details: 25 μM ATP, 1 h at room temperature
T1 construct: made in house; host or cells: Sf21 insect cells (baculovirus)
T1 sequence (Q9UKE5 1-314): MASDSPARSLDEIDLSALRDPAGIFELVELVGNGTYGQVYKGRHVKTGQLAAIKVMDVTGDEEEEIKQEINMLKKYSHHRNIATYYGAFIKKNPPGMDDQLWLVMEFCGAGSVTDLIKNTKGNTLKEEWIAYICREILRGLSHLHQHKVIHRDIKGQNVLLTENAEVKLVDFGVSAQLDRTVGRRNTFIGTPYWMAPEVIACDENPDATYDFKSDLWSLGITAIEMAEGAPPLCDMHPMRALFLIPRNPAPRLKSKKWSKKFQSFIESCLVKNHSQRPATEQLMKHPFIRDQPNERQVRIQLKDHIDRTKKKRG
Source text: A cDNA encoding the N-terminal segment (TNIK_N, residues 1-314) containing the kinase domain of human TNIK (NM_015028.1) was amplified from cDNA mixture synthesized from human tissue (Biochain) by PCR using the following primers: 5′-[…]-3′ ([SEQ ID NO:1]: forward primer, the underlined nucleotides indicates the location of a EheI site); 5′-[…]-3′ ([SEQ ID NO:2]: reverse primer, the underlined nucleotides indicates the location of a NotI site). The cDNA was subcloned into baculovirus transfer vector pFastBac_GSTb that includes protease cleavage site and glutathione S-transferase purification tag (GST-tag). The plasmid was purified and the insertion of the pFastBac_GSTb-TNIK_N was confirmed by DNA sequencing. Then E. coli DH10Bac competent cells were transformed with the plasmid to prepare the recombinant bacmid according to the instructions for the Bac-to-Bac™ baculovirus expression systems (Invitrogen). The Sf9 cells were transfected with the recombinant bacmid containing pFastBac_GSTb-TNIK_N using Cellfectin Reagent (Invitrogen) in SF-900II serum free media (Invitrogen). The viral supernatant was collected from the medium 72 h after transfection. The virus was amplified three times by infecting actively growing Sf9 or Sf21 cells in Grace's insect media (Invitrogen) supplemented with 10% FCS and an antibiotic-antimycotic reagent (Invitrogen) for 72 h at 27° C. in T-flask or roller bottles. The titer of amplified TNIK_N virus was estimated at 2.36×10^8 pfu/ml by using BacPAK™ Baculovirus Rapid Titer kit (Clontech).
Log-phase Sf21 cells (2×10^6 cells/ml) in the Grace's insect media were infected with the recombinant baculovirus at MOI of 3.0 and incubated in roller bottles (250 ml media per bottle) for 72 h at 27° C., after which, the cells were collected by centrifugation, and the cell pellet washed with cold PBS and kept at −80° C. until purification. The following purification procedures were carried out at 4° C. The frozen cells were thawed on ice and lysed in lysis buffer (50 mM Tris-HCl, pH 7.5, 150 mM NaCl, 1% Nonidet P-40, 5 mM DTT, 0.5 mM EDTA, 0.5 mM EGTA) supplemented with 1 mM phenylmethansulfonylfluoride, 2 μg/ml leupeptin, 2 μg/ml aprotinin, 1 mM NaF, 100 μM sodium orthovanadate, and 1 μM cantharidin by sonication. The suspended lysate was cleared by centrifugation at 9000 g for 20 min and the supernatant was incubated for 1 h with glutathione Sepharose beads (GE Healthcare). The beads were suspended in buffer-H (50 mM Tris-HCl, pH 7.5, 1 M NaCl, 1 mM DTT, 0.5 mM EDTA, 0.5 mM EGTA and 0.05% Brij35) and washed with buffer-H followed by buffer-L (50 mM Tris-HCl, pH 7.5, 150 mM NaCl, 1 mM DTT, 0.5 mM EDTA, 0.5 mM EGTA, 0.05% Brij35) in an Econo-pack column (BIO-RAD). The bound TNIK_N was eluted with elution buffer (50 mM Tris-HCl, pH 8.0, 150 mM NaCl, 1 mM DTT, 10% glycerol, 0.5 mM EDTA, 0.5 mM EGTA and 5 mM reduced glutathione). The eluted fractions were collected and determined the protein concentration by Bradford reagent (BIO-RAD). The TNIK_N fractions were pooled and desalted using 10DG column (BIORAD) equilibrated with the storage buffer (50 mM Tris-HCl, pH 7.5, 150 mM NaCl, 1 mM DTT, 10% glycerol, 0.05% Brij35). The purified TNIK_N was characterized by electrophoresis using 4-20% polyacrylamide gels and matrix-assisted laser desorption/ionization reflection time-of-flight (MALDI-TOF) mass spectrometry on a Voyager-DE RP MALDI/TOF (Applied Biosystems). TNIK_N was confirmed by the molecular weight and MASCOT Peptide Mass Fingerprint.
The kinase assays were conducted in a 20 μl volume using 384-well plates (Greiner). The reaction mixture consists of compound or vehicle (1% DMSO), 0.08 ng/μl TNIK_N, 1 μM FITC-labeled substrate peptides, FITC-x-Lys-Tyr-Lys-Thr-Leu-Arg-Gln ([SEQ ID NO.3], x: ε-aminocaproic acid), 20 mM Hepes, pH 7.5, 0.01% Triton X-100, 5 mM MgCl2, 25 μM ATP and 2 mM DTT. As blank, TNIK_N was excluded from the reaction mixture of vehicle (1% DMSO). […]

Row | IC50 [1] [nM] | Compound | excised tumours versus not treated, atelocollagen only or control RNA (HCT-116 cells) | volume of xenografts (HCT-116 cells)
1 | – | siRNA against TNIK (13): small interfering RNA against TNIK, sense 5′-GACCGAAGCUCUUGGUUACUU-3′, synthesized by Dharmacon (antisense GUAACCAAGAGCUUCGGUCUU; listed as RNA, chemistry not given here) | significantly smaller | regressed almost completely
2 | – | siRNA against TNIK (12): small interfering RNA against TNIK, sense 5′-CGACAUACCCAGACUGAUAUU-3′, synthesized by Dharmacon (antisense UAUCAGUCUGGGUAUGUCGUU; listed as RNA, chemistry not given here) | significantly smaller | regressed almost completely
3 | 4 | NC(=O)c1nc(Nc2cccnc2)sc1NC(=O)c1ccc(NCCO)cc1 [Compound A72, 5-[4-(2-hydroxyethylamino)benzamido]-2-(pyridin-3-ylamino)thiazole-4-carboxamide] | – | –
4 | 280 | NC(=O)c1nc(Nc2ccccc2)sc1NC(=O)Cc1cccs1 [Compound 6, 2-(phenylamino)-5-(2-(thiophen-2-yl)acetamido)thiazole-4-carboxamide] | – | –
5 | 40 | Cc1cccc(C(=O)Nc2sc(Nc3ccccc3)nc2C(N)=O)c1 [Compound 2, 5-(3-methylbenzamido)-2-(phenylamino)thiazole-4-carboxamide] | – | –
6 | 2 | NC(=O)c1nc(Nc2cccnc2)sc1NC(=O)c1ccc(NCCc2ccncc2)cc1 [Compound A84, 2-(pyridin-3-ylamino)-5-{4-[2-(pyridin-4-yl)ethyl-amino]benzamido}thiazole-4-carboxamide] | – | –
7 | 9 | COc1ccc(Nc2nc(C(N)=O)c(NC(=O)c3ccc(NC(=O)CO)cc3)s2)cc1 [Compound A37, 5-[4-(2-hydroxyacetamido)benzamido]-2-(4-methoxyphenylamino)thiazole-4-carboxamide] | – | –
8 | 7 | NC(=O)c1nc(Nc2ccncc2)sc1NC(=O)c1ccc(F)cc1 [Compound A76, 5-(4-fluorobenzamido)-2-(pyridin-4-ylamino) thiazole-4-carboxamide] | – | –
9 | 57 | COc1ccc(C(=O)Nc2sc(Nc3ccc(C)cc3)nc2C(N)=O)cc1OC [Compound 14, 2-(p-toluidino)-5-(3,4-dimethoxybenzamido)thiazole-4-carboxamide] | – | –
10 | 13 | COc1ccc(Nc2nc(C(N)=O)c(NC(=O)c3ccc(N4CCC(CO)CC4)cc3)s2)cc1 [Compound A43, 5-{4-[4-(hydroxymethyl)piperidin-1-yl]benzamido}-2-(4-methoxyphenylamino)thiazole-4-carboxamide] | – | –
11 | 6 | Cc1ccc(C(=O)Nc2sc(Nc3ccccc3)nc2C(N)=O)cc1 [Compound A1, 5-(4-methylbenzamido)-2-(phenylamino)thiazole-4-carboxamide] | – | –
12 | 16 | COc1ccc(Nc2nc(C(N)=O)c(NC(=O)c3ccc(OC)cc3)s2)cc1 [Compound A46, 5-(4-methoxybenzamido)-2-(4-methoxyphenyl-amino)thiazole-4-carboxamide] | – | –
13 | 24 | CC(=O)Nc1ccc(C(=O)Nc2sc(Nc3ccc(N)cc3)nc2C(N)=O)cc1 [Compound A19, 5-(4-acetamidobenzamido)-2-(4-aminophenyl-amino)thiazole-4-carboxamide] | – | –
14 | 11 | COc1ccc(Nc2nc(C(N)=O)c(NC(=O)c3ccc(NCCN(C)C)cc3)s2)cc1 [Compound A24, 5-{4-[2-(dimethylamino)ethylamino]benzamido}-2-(4-methoxyphenylamino)thiazole-4-carboxamide] | – | –
15 | 19 | NC(=O)c1nc(Nc2ccccc2)sc1NC(=O)c1ccccc1F [Compound 3, 5-(2-fluorobenzamido)-2-(phenylamino)thiazole-4-carboxamide] | – | –
16 | 6 | COc1ccc(C(=O)Nc2sc(Nc3ccc(CO)cc3)nc2C(N)=O)cc1 [Compound A102, 2-[4-(hydroxymethyl)phenylamino]-5-(4-methoxy-benzamido)thiazole-4-carboxamide] | – | –
17 | 9 | CC(=O)Nc1ccc(C(=O)Nc2sc(Nc3cccnc3)nc2C(N)=O)cc1 [Compound A20, 5-(4-acetamidobenzamido)-2-(pyridin-3-ylamino) thiazole-4-carboxamide] | – | –
18 | 180 | CC(C)CC(=O)Nc1sc(Nc2ccccc2)nc1C(N)=O [Compound 7, 5-(3-methylbutanamido)-2-(phenylamino)thiazole-4-carboxamide] | – | –
19 | 14 | COc1ccc(Nc2nc(C(N)=O)c(NC(=O)c3ccc(NC(C)=O)cc3)s2)cc1 [Compound A11, 5-(4-acetamidobenzamido)-2-(4-methoxyphenyl-amino)thiazole-4-carboxamide] | – | –
